Laboratory results from patent publication US20110150767A1, “ALPHA-SUBSTITUTED AND ALPHA-UNSUBSTITUTED AROMATIC AMINO ACID DERIVATIVES AND COMPOSITIONS THEREOF FOR USE TO TREAT, DIAGNOSE, OR MONITOR A MEDICAL CONDITION” (priority 2009, published 2011).

How the values were obtained:
[1] = target: T1, human L-type amino acid transporter 1 (LAT1; S2-hLAT1 cells) (Homo sapiens, UniProt Q01650); test: Inhibition of L-[14C]leucine uptake in S2-LAT1 cells; format: cell-based; conditions: inhibition of 1.0 μM L-[14C]leucine uptake, 1.0 min, 37° C., NI = no inhibition at 100 μM
T1 construct: expressed in transfected cells; host or cells: S2 cells (S2-hLAT1 / S2-LAT1); mammalian cell line described in Morimoto et al., J Pharmacol Sci 2008, 108, 505-516
T1 sequence (Q01650 whole entry, one chain of several): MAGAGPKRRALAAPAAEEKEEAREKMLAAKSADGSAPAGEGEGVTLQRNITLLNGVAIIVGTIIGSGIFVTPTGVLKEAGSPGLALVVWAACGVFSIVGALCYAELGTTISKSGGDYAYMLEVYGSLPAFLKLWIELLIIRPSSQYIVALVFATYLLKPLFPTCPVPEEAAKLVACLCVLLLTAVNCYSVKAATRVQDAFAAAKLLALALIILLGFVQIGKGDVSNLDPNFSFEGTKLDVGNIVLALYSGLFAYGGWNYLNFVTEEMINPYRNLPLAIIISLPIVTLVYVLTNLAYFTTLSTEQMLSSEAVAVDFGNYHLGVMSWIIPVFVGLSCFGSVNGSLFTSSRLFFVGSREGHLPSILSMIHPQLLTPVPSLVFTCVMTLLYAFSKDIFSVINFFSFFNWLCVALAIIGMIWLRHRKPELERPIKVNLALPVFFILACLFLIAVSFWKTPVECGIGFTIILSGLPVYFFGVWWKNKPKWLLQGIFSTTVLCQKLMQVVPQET
Description: (§1) The establishment and characterization of mammalian cell lines expressing human L-type amino acid transporterss (i.e. S2-hLAT1 and S2-hLAT2) has been previously described (Morimoto et al., Journal of Pharmacological Sciences, 2008, 108, 505-516).
(§2) General test procedures are as follows: All test compounds were dissolved in dimethyl sulfoxide (DMSO) to prepare stock solutions at the concentrations of 0.05, 0.5, 5.0 and 50 mM; next, these stock solutions were used and diluted with uptake solution to make final test concentrations of 0.10, 1.00, 10.0 and 100 μM, respectively. Therefore, all compounds used for uptake experiment were in uptake solution containing 0.2% DMSO; experiments are performed in triplicate for each concentration. For control uptake, only DMSO was added into the uptake solution to a final concentration of 0.2%.
(§3) S2-LAT1 and S2-LAT2 cells were seeded (1.3×10^5 cells/well) into 24-well plates and cultured at 33° C. (5% CO2) for 2-3 days until confluent (90%-100% confluence). Uptake experiments were performed at 37° C. The culture medium was removed and washed 3 times with uptake solution (37° C.; Hank's Na^+ free buffer consisting of 125 mM choline chloride, 4.8 mM KCl, 1.3 mM CaCl2, 1.2 mM MgCl2, 25.0 mM HEPES, and 5.0 mM Tris, pH 7.4, supplemented with D-glucose (5.6 mM). The cells were equilibrated in uptake solution (300 μL; 37° C.) for 12 min. The equilibrated solution was removed and uptake solution containing radio-labeled compound (1.0 μM L-[^14C] Leucine) with or without test compound (300 μL) was added to the cells (1.0 min). The test solution was removed and the cells washed 3 times with ice-cold uptake solution. The cells are then solubilized with 0.1N NaOH (0.5 mL) and transferred to scintillation vials. Liquid scintillation fluid (3.0 mL; aquasol-2) was added, mixed and substrate accumulation was measured by counting radioactivity via liquid scintillation counting (LSC; LSC6100, Aloka, Tokyo). The uptake value and % of inhibition were calculated to afford IC50 values.

[2] = target: T2, human L-type amino acid transporter 2 (LAT2; S2-hLAT2 cells) (Homo sapiens, UniProt Q9UHI5); test: Inhibition of L-[14C]leucine uptake in S2-LAT2 cells; format: cell-based; conditions: inhibition of 1.0 μM L-[14C]leucine uptake, 1.0 min, 37° C., NI = no inhibition at 100 μM
T2 construct: expressed in transfected cells; host or cells: S2 cells (S2-hLAT2 / S2-LAT2); mammalian cell line described in Morimoto et al., J Pharmacol Sci 2008, 108, 505-516
T2 sequence (Q9UHI5 1-535): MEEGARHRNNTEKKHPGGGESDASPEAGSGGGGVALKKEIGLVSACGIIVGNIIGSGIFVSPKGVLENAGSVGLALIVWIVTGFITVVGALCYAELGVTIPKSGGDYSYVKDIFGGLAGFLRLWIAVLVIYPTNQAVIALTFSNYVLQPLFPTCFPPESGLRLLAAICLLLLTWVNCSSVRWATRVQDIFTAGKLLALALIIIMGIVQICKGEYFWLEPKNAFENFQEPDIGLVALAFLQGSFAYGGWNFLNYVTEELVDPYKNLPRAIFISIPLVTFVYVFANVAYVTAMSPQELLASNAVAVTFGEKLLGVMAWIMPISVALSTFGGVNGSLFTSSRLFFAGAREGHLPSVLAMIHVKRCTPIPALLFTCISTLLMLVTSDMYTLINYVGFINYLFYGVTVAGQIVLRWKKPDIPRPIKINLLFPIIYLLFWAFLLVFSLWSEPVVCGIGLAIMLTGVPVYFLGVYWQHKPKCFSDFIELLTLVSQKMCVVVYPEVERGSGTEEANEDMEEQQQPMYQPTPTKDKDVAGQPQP
T2 sequence (P08195 1-529 partner): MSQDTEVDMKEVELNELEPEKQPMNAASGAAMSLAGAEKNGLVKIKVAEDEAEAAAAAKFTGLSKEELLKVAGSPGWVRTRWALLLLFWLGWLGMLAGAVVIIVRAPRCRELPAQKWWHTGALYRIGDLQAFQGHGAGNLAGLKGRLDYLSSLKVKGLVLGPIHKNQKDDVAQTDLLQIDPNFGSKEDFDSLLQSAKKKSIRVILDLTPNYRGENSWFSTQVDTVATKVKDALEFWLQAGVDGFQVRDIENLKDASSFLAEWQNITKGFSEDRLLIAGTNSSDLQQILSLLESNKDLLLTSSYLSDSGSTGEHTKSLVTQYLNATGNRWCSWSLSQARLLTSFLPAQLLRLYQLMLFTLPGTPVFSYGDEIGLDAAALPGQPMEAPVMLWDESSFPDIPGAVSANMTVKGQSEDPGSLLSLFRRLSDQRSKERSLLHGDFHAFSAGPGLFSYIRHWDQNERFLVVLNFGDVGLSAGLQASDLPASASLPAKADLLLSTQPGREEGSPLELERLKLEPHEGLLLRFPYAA
Description: as §1, §2, §3

| SMILES | IC50 [1] [µM] | IC50 [2] [µM] |
| --- | --- | --- |
| CCOc1ccc(COc2c(I)cc(C[C@H](N)C(=O)O)cc2I)c(OCC)c1 [compound 48] | 17.2 | > 100 |
| CCOc1ccc(COc2c(I)cc(C[C@H](N)C(=O)O)cc2I)cc1OCC [compound 49] | 5.5 | > 100 |
| N[C@@H](Cc1cc(I)c(OCc2ccc3c(c2)OCO3)c(I)c1)C(=O)O [compound 50] | 24.1 | > 100 |
| COc1ccc(CCOc2c(Br)cc(C[C@H](N)C(=O)O)cc2Br)cc1 [compound 52] | 6.8 | > 100 |
| COc1cccc(CCOc2c(Br)cc(C[C@H](N)C(=O)O)cc2Br)c1 [compound 53] | 6.3 | > 100 |
| COc1ccccc1CCOc1c(Br)cc(C[C@H](N)C(=O)O)cc1Br [compound 54] | 5.4 | > 100 |
| COc1ccccc1COc1c(Br)cc(C[C@H](N)C(=O)O)cc1Br [compound 55] | 10.2 | > 100 |
| COc1cccc(COc2c(Br)cc(C[C@H](N)C(=O)O)cc2Br)c1 [compound 56] | 67.1 | > 100 |
| N[C@@H](Cc1cc(Br)c(OCCc2ccc(C(F)(F)F)cc2)c(Br)c1)C(=O)O [compound 58] | 43.2 | > 100 |
| N[C@@H](Cc1cc(Br)c(OCCc2cccc(C(F)(F)F)c2)c(Br)c1)C(=O)O [compound 59] | 31.8 | > 100 |
| N[C@@H](Cc1cc(Br)c(OCCc2ccccc2C(F)(F)F)c(Br)c1)C(=O)O [compound 60] | > 100 | > 100 |
| N[C@@H](Cc1cc(Br)c(OCc2ccccc2C(F)(F)F)c(Br)c1)C(=O)O [compound 61] | > 100 | > 100 |
| N[C@@H](Cc1cc(Cl)c(OCCc2ccccc2)c(Cl)c1)C(=O)O [compound 122] | 50.7 | > 100 |
| COc1ccc(COc2c(Cl)cc(C[C@H](N)C(=O)O)cc2Cl)cc1OC [compound 129] | 17.8 | > 100 |
| COc1cccc(COc2c(Cl)cc(C[C@H](N)C(=O)O)cc2Cl)c1OC [compound 132] | 28.2 | > 100 |
| COc1cc(Cl)ccc1COc1c(Cl)cc(C[C@H](N)C(=O)O)cc1Cl [compound 134] | 4.4 | > 100 |
| COc1ccc(COc2c(Cl)cc(C[C@H](N)C(=O)O)cc2Cl)c(OC)c1OC [compound 136] | 8.1 | > 100 |
| COc1ccc(COc2c(Cl)cc(C[C@H](N)C(=O)O)cc2Cl)c(C)c1C [compound 137] | 3.5 | > 100 |
| COc1cc(OC)c(OC)cc1COc1c(Cl)cc(C[C@H](N)C(=O)O)cc1Cl [compound 138] | 29.2 | > 100 |
| CCOc1cc(COc2c(Cl)cc(C[C@H](N)C(=O)O)cc2Cl)cc(OCC)c1OCC [compound 139] | 1.2 | > 100 |
| CCOc1ccc(COc2c(Cl)cc(C[C@H](N)C(=O)O)cc2Cl)c(OCC)c1 [compound 140] | 2.2 | > 100 |

Further lines, results first:

| IC50 [1] [µM] | IC50 [2] [µM] | SMILES |
| --- | --- | --- |
| > 100 | > 100 | CC(N)(Cc1cc(Cl)c(OCc2ccc3c(c2)OCO3)c(Cl)c1)C(=O)O (racemic) [compound 144] |
|  | > 100 | CC(N)(Cc1cc(Cl)c(OCc2ccc(C(F)(F)F)cc2)c(Cl)c1)C(=O)O (racemic) [compound 145] |
| 6.7 | 16.4 | COc1ccc(COc2c(Cl)cc(CC(C)(N)C(=O)O)cc2Cl)cc1 (racemic) [compound 146] |
| > 100 | > 100 | COc1cccc(COc2c(Cl)cc(CC(C)(N)C(=O)O)cc2Cl)c1 (racemic) [compound 147] |
| > 100 | > 100 | COc1ccccc1COc1c(Cl)cc(CC(C)(N)C(=O)O)cc1Cl (racemic) [compound 148] |
| > 100 | > 100 | COc1cccc(COc2c(Cl)cc(CC(C)(N)C(=O)O)cc2Cl)c1OC (racemic) [compound 149] |
| > 100 | > 100 | COc1ccc(COc2c(Cl)cc(CC(C)(N)C(=O)O)cc2Cl)cc1OC (racemic) [compound 150] |
| > 100 | > 100 | COc1cc(COc2c(Cl)cc(CC(C)(N)C(=O)O)cc2Cl)cc(OC)c1OC (racemic) [compound 151] |
| > 100 | > 100 | CC(N)(Cc1cc(Cl)c(OCc2ccncc2)c(Cl)c1)C(=O)O (racemic) [compound 152] |
| > 100 | > 100 | N[C@@H](Cc1cc(I)c(OCCc2ccc(OC(F)(F)F)cc2)c(I)c1)C(=O)O [compound 33] |
| 11.9 | 47.9 | N[C@@H](Cc1cc(I)c(OCC(=O)c2ccccc2)c(I)c1)C(=O)O [compound 34] |
| 8.8 | > 100 | COC(COc1c(I)cc(C[C@H](N)C(=O)O)cc1I)c1ccccc1 (stereo partly shown) [compound 35] |
| 28.2 | > 100 | N[C@@H](Cc1cc(I)c(OCCc2ccc([N+](=O)[O-])cc2)c(I)c1)C(=O)O [compound 36] |
| 11.5 | 8.2 | N[C@@H](Cc1cc(I)c(OCc2ccc([N+](=O)[O-])cc2)c(I)c1)C(=O)O [compound 37] |
| 5 | > 100 | COc1ccc(COc2c(I)cc(C[C@H](N)C(=O)O)cc2I)c(OC)c1 [compound 41] |
| 17.7 | > 100 | COc1cc(Cl)ccc1COc1c(I)cc(C[C@H](N)C(=O)O)cc1I [compound 42] |
| 23.6 | > 100 | COc1ccc(COc2c(I)cc(C[C@H](N)C(=O)O)cc2I)c(OC)c1OC [compound 43] |
| 7.7 | > 100 | COc1ccc(COc2c(I)cc(C[C@H](N)C(=O)O)cc2I)c(C)c1C [compound 44] |
| 15 | > 100 | COc1cc(COc2c(I)cc(C[C@H](N)C(=O)O)cc2I)cc(OC)c1OC [compound 45] |
| 10.4 | 29.5 | N[C@@H](Cc1cc(I)c(OCc2ccc(Cl)cc2)c(I)c1)C(=O)O [compound 51] |
| 16.4 | 86.5 | COc1ccc(COc2c(Br)cc(C[C@H](N)C(=O)O)cc2Br)cc1 [compound 57] |
| 4.2 | 27.3 | N[C@@H](Cc1cc(Cl)c(OCc2ccc3c(c2)OCO3)c(Cl)c1)C(=O)O [compound 130] |
| 8.4 | 126 | COc1ccc(COc2c(Cl)cc(C[C@H](N)C(=O)O)cc2Cl)cc1[N+](=O)[O-] [compound 131] |
| 0.8 | 5.5 | COc1ccc(COc2c(Cl)cc(C[C@H](N)C(=O)O)cc2Cl)c(OC)c1 [compound 133] |
| 2.4 | 32.5 | COc1ccc(COc2c(Cl)cc(C[C@H](N)C(=O)O)cc2Cl)c(OC)n1 [compound 135] |
